# From patent publication US20110046079A1, “Use of Proton Pump Inhibitors as Drug Delivery Adjuvants” (priority 2008, published 2011)
# What was measured:
# [1] = tested on: rat gastric corpus mucosa; assay: Transepithelial electrical resistance and short circuit current in Ussing chambers; settings: 0.05 mM digoxin, 0.1 mM phenytoin
# Method: (§1) Water-jacketed reservoirs maintained chamber saline at 37° C.
# (§2) In order to confirm stimulation of acid secretion by secretagogue addition and to verify the efficacy of the PPI, mucosal fluid compartment pH was recorded at intervals throughout the experiment with a manual electrode (Denver Instruments, Denver, Colo.). Ag/AgCl voltage and current electrodes were used to measure PD (potential difference) and ISC (short circuit current) approximately every five minutes for the duration of the experiment, as previously described (Hameed et al. (2004) Dig. Dis. Sci., 49:1381-1386), using two single-channel current/voltage clamps (McGrath Research and Technology). Ohm's Law was used to calculate transepithelial electrical resistance across the tissue.
# Electrical parameters were monitored throughout the duration of the experiment. Tissues were maintained under open circuit conditions. […] Tissue voltage (potential difference), short circuit current, and transepithelial resistance were recorded approximately every five minutes for the duration of the experiment, by passing a one-second current pulse equal to biological current to bring the potential difference to zero using a current/voltage clamp (McGrath Research & Technology). Transepithelial resistance was calculated by dividing open circuit potential difference by short circuit current (Ohm's law).
# [2] = tested on: rat gastric corpus mucosa; assay: Transepithelial drug flux studies (3H-digoxin, 14C-phenytoin, mucosal to serosal) before and after omeprazole or DMSO; format: in vitro ADME; settings: for Post-Omeprazole Flux Value: after 200 μM omeprazole; for Post-Omeprazole Flux Value / Post-DMSO Flux Value: corrected by TLC; for Pre-Omeprazole Flux Value: before 200 μM omeprazole; for % Increase in Flux After DMSO / Post-DMSO Flux Value / Pre-DMSO Flux Value: vehicle control tissue; for Pre-DMSO Flux Value: mean ± SEM
# Method: Sprague Dawley male rats weighing approximately 400 grams were sacrificed by decapitation and the stomach was quickly removed, cut along the greater curvature, and flushed of luminal contents. The serosal membrane was then stripped from the corpus region and two equal sized pieces of corpus mucosa were mounted in two separate Ussing chambers with exposed tissue areas of 1.13 cm^2. Chambers were connected to 15 mL gas-lift reservoirs filled with un-buffered saline aerated with 100% O2 and bicarbonate-buffered saline aerated with 95% O2/5% CO2 on the mucosal and serosal sides, respectively. Saline temperature was held constant at 37° C. by a jacketed water bath surrounding the reservoirs. 30 minutes at 37° C. was allowed for tissue equilibration. In paired experiments, one tissue served as (vehicle) ‘control’, and the other as omeprazole-treated ‘experimental’.
# After 30 minutes of tissue equilibration time in Ussing chambers, dibutyrl cyclic AMP (dBcAMP) (Sigma) was added to a final concentration of 1 mM to the serosal fluid chambers to stimulate acid secretion. […] The addition of the isotope marked the beginning of the flux period. 150 μL or 250 μL samples were taken from the serosal fluid compartment (opposite from which the isotope was added) for liquid scintillation counting (LSC). Samples were initially taken at 30 minute intervals for 90 minutes for the ^14C-phenytoin flux or at 15 minute intervals for 75 minutes for the ^3H-digoxin flux to establish the basal permeability rate (ρmoles/min/cm^2) across the tissue. 200 μM omeprazole (Sigma) (in DMSO) was then added to the mucosal and serosal sides of one chamber and an equivalent amount of DMSO (Sigma) was also added to both sides of the control chamber. Another series of serosal fluid samples were taken for LSC at 15 or 30 minute intervals for the remaining 60 minutes of ^3H-digoxin or ^14C-phenytoin flux experiments, respectfully, to determine flux rate of the radiolabeled drugs after omeprazole addition. In all cases of fluid sampling for liquid scintillation counting, an equal amount of fresh buffered saline was added back to the serosal side to prevent hydrostatic gradients from developing across the tissue. The flux of each isotope (ρmole/min/cm^2) was determined by calculating the linear regression slope of the graph of cpm versus time, and converting cpm to picomoles after determining the specific activity of the drug in the mucosal fluid.
# To observe if the omeprazole-induced leak allows for permeation of certain small molecule drugs, ^3H-digoxin was added to the mucosal fluid compartment and saline samples were taken at 15 minute intervals from the serosal fluid compartments for a 135-minute flux period. Omeprazole and/or DMSO were added to their respective tissues 75 minutes after the addition of the isotope. Radioactivity present in the serosal fluid compartment was measured as a function of time before and after the addition of omeprazole or DMSO.
# [3] = tested on: rat gastric corpus mucosa; format: in vitro ADME
# Method: Additional saline samples were taken from the mucosal and serosal fluid compartments one minute before the addition of omeprazole/DMSO and at the end of the entire flux period to allow for thin-layer chromatography (TLC) analysis of radioactivity that crossed the tissue. TLC was performed to account for the potential contribution of radiolabeled metabolites to total radioactivity crossing the epithelial barrier, in the event of drugs entering gastric epithelial cells and metabolites being effluxed. Saline samples were taken from both surfaces of the tissue to determine possible degradation of the molecule upon exposure to the mucosal surface of the tissue as well as to analyze the chemical nature of the radioactivity that crossed the tissue. […] TLC was performed on silica gel 60 plates (Kodak) by spotting very small amounts of the concentrated sample. Plates were then placed in a sandwich tank and a variety of mobile phases were employed, including butanol/acetic acid/water (120:30:50), isopropanol/water (120:30), and ethyl acetate/methanol/water (81:11:8).
# rat gastric corpus = format: in vitro ADME; settings: omeprazole-treated vs control
# Method: The numbers provided hereinbelow (Table 6) represent the transepithelial diffusion (mucosal to serosal) of radiolabeled bradykinin. […] It includes only intact bradykinin.
# Two data sets from two experiments are provided. These are bradykinin fluxes in picomoles/min/cm^2. One tissue was treated only with DMSO (vehicle control). […] The other tissue (paired pieces of rat gastric corpus) is treated with omeprazole in DMSO. […] The bradykinin leak in controls is likely due to ‘experimental artifact’—in this case mechanical damage of the tissue in handling plus incubation. The increase in flux (leak) of bradykinin seen with DMSO may not be a function of the DMSO at all, but instead simply be a result of tissue ‘breakdown’ over time due to the tissue's very finite lifespan once out of the animal.
# [4] = human, 50 micromolar
# From the text: A portion of this flux is due to damage of the gastric tissue preparation during mounting in the Ussing chambers. To correct for flux due to edge damage, the flux rate was subtracted prior to omeprazole addition from the flux rate after omeprazole addition. However, the added issue of decline in cell viability over the course of any experiment, and its contribution to overall leak, still remains (this is generally observed in the modest decline in transepithelial electrical resistance over experimental running time).
# healthy controls = assay: Sucrose leak test before and after five days of omeprazole or famotidine; format: in vivo, human
# Method: An 8 hour overnight urine sample was collected in a container with 5 ml of 10% thymol in isopropanol as antimicrobial preservative. A courier service picked up urine containers at the patient's home and delivered them to the research laboratory. Total urine volume and refractive index were measured and recorded. […] This amount of sucrose equates to the amount of sucrose which leaked from the upper GI lumen.
# H-2 blockers such as PEPCID® (famotidine) also cause a GI leak. The instant study was first performed with 20 subjects, all healthy controls. Randomly 10 were put on PPIs (20 mg of omeprazole), 10 on H-2 blockers (40 mg of famotidine). These amounts are standard for acid suppression therapy. […] They were given doses of these drugs in the morning for five days. A sucrose leak test was done the night of the fifth and last day.
# Therefore, a second H-2 blocker study was performed looking at leak in an n=5 group but doing evening doses of famotidine and maintaining the other aspects of the above study, with the post H-2 blocker leak test performed again the night of the 5th dose, but now only with a 4-6 hours after the 5th and final dose.
# [5] = tested on: rat gastric corpus mucosa; assay: Acid secretion (mucosal fluid pH) of dB-cAMP stimulated tissue in Ussing chambers; settings: Rattus norvegicus; 25 μM omeprazole, plateau; read-out: inhibition of acid secretion (no further decrease in mucosal fluid pH)
# Method: as §1, §2
# Mucosal and serosal saline pH measurements were taken at approximately five minute intervals using a manual electrode (Denver Instruments) to ensure that the tissue was secreting acid. Mucosal pH readings were also taken before and after the addition of omeprazole to document the action of omeprazole on inhibiting acid secretion. Tissue viability was confirmed at the end of each experiment by tissue exposure to 10 mM amiloride in the mucosal fluid compartment in order to inhibit short circuit current.
# [6] = tested on: rat gastric corpus mucosa; assay: Transepithelial flux of 14C-labeled probes (mannitol, sucrose, polyethylene glycol) before and after PPI; settings: for % Increase in Flux of 14C-[D]-mannitol: 200 μM PPI
# Method: In each experiment, one adult male Sprague Dawley rat was sacrificed by decapitation. The stomach was removed, flushed, and stripped of its outer serosal membrane, while being frequently moistened with chilled, unbuffered saline. Two pieces of corpus mucosa were mounted in modified Ussing chambers, with exposed tissue surface area of 1.13 cm^2. Chambers were connected to gas-lift reservoirs, with a fluid volume of 17 mL per hemichamber. The mucosal hemichamber was filled with unbuffered saline (with 17 mM glucose) and kept aerated and perfused with 100% O2 at 37° C. […] Water-jacketed reservoirs maintained chamber saline at 37° C.
# KRB was adjusted to a pH of 7.3-7.4.
# Unbuffered saline was gassed with 100% O2 and was used to bathe the mucosal side of the gastric mucosa.
# Approximately 30 minutes after tissues were mounted in Ussing chambers, dibutyrl cyclic AMP (dB-cAMP) (Sigma, St. Louis, Mo.) was added to the serosal sides of both chambers to a concentration of 1 mM in order to stimulate acid output by the tissue.
# Three experiments were performed with each PPI, examining gastric permeability to ^14C-mannitol.
# Three experiments were performed at each omeprazole concentration.
# [7] = Kiley et al. (2007); cited from earlier work
# patients = settings: Wilde et al. (1994); cited from earlier work
smiles,measurement,setting,value
O=C1NC(=O)C(c2ccccc2)(c2ccccc2)N1 [phenytoin],effect of the probe drug itself on transepithelial electrical resistance or short circuit current,[1],not themselves exerting an effect
same,% Increase in Flux After Omeprazole,"[2]; 0.1 mM probe, 200 μM omeprazole, listed as 14C-Phenytoin",54.4% ± 7.7%
same,% Increase in Flux After Omeprazole,"[2]; 0.1 mM probe, 200 μM omeprazole, listed as 14C-phenytoin",54.4%
same,Post-Omeprazole Flux Value,[2]; 0.1 mM probe,119.4 ± 12.9 ρmole/min/cm^2
same,Pre-Omeprazole Flux Value,"[2]; 0.1 mM probe, 3 experiments",78.3 ± 11.4 ρmole/min/cm^2
same,% Increase in Flux After DMSO,[2]; 0.1 mM probe,69.3%
same,Post-DMSO Flux Value,[2]; 0.1 mM probe,120.0 ± 14.7 ρmole/min/cm^2
same,% Increase in Flux After DMSO,"[2]; 0.1 mM probe, listed as 14C-Phenytoin",69.3% ± 13.9%
same,Pre-DMSO Flux Value,"[2]; 0.1 mM probe, 3 experiments",71.9 ± 9.8 ρmole/min/cm^2
same,metabolic breakdown on crossing the gastric mucosa,[3],no metabolic breakdown
same,co-migration of serosal radioactivity with pure phenytoin standard,"[3]; male, Sprague Dawley, rat, 0.1 mM",100%
"CC[C@H](C)[C@@H]1NC(=O)[C@H](Cc2ccc(O)cc2)NC(=O)[C@@H](N)CSSC[C@@H](C(=O)N2CCC[C@H]2C(=O)N[C@@H](CC(C)C)C(=O)NCC(N)=O)NC(=O)[C@H](CC(N)=O)NC(=O)[C@H](CCC(N)=O)NC1=O [oxytocin, Cys-Tyr-Iso-Gln-Asn-Cys-Pro-Leu-Gly]",leak with omeprazole over control,rat gastric corpus,not observed
C[C@H]1O[C@@H](O[C@H]2[C@@H](O)C[C@H](O[C@H]3[C@@H](O)C[C@H](O[C@H]4CC[C@@]5(C)[C@H](CC[C@@H]6[C@@H]5C[C@@H](O)[C@]5(C)[C@@H](C7=CC(=O)OC7)CC[C@]65O)C4)O[C@@H]3C)O[C@@H]2C)C[C@H](O)[C@@H]1O [digoxin],effect of the probe drug itself on transepithelial electrical resistance or short circuit current,[1],not themselves exerting an effect
same,% Increase in Flux After Omeprazole,"[2]; 0.05 mM probe, 200 μM omeprazole, P<0.03 vs DMSO",82.2%
same,% Increase in Flux After Omeprazole,"[2]; 0.05 mM probe, 200 μM omeprazole, P<0.03 vs DMSO, listed as 3H-Digoxin",82.2% ± 7.7%
same,Post-Omeprazole Flux Value,[2]; 0.05 mM probe,9.4 ± 0.6 ρmole/min/cm^2
same,Pre-Omeprazole Flux Value,"[2]; 0.05 mM probe, 4 experiments",5.1 ± 0.2 ρmole/min/cm^2
same,% Increase in Flux After DMSO,[2]; 0.05 mM probe,50.9%
same,Post-DMSO Flux Value,[2]; 0.05 mM probe,7.2 ± 1.5 ρmole/min/cm^2
same,% Increase in Flux After DMSO,"[2]; 0.05 mM probe, listed as 3H-Digoxin",50.9% ± 7.0%
same,Pre-DMSO Flux Value,"[2]; 0.05 mM probe, 4 experiments",4.8 ± 1.0 ρmole/min/cm^2
same,increase in flux of total radioactivity (tritium) after omeprazole addition,"[2]; 200 μM omeprazole, not corrected by TLC, SEM",84%
same,"increase in flux of total radioactivity (tritium), vehicle control","[2]; DMSO, not corrected by TLC",50%
same,final flux of true 3H-digoxin,"[2]; in the presence of omeprazole, 0.05 mM digoxin",approximately 9 picomoles/min/cm^2
same,final omeprazole-dependent 3H-digoxin flux,"[2]; omeprazole flux minus DMSO flux, 4 paired experiments, SEM",1.8±0.4 picomoles/min/cm^2
same,total gastric corpus-wide flux,[4],900 picomoles/minute
COc1ccc2[nH]c([S+]([O-])Cc3ncc(C)c(OC)c3C)nc2c1 (stereo not shown) [omeprazole],pre-med sucrose leak,"healthy controls; baseline before medication, n=10 per group, SEM",42 mg
same,post med sucrose leak,"healthy controls; morning doses for five days (20 mg omeprazole or 40 mg famotidine), test night of fifth day, n=10",212 mg
same,inhibition at 25 µM,[5],100%
same,% Increase in Flux of 14C-[D]-mannitol,[6],68.72%
same,% Increase in Flux of 14C-[D]-mannitol,[6]; listed as Omeprazole,68.72 +/− 8.32%
same,effect on transepithelial permeability at low concentrations,"[6]; 1, 5, or 10 μM omeprazole, 14C-mannitol",no significant effect
same,concentration at which marked transepithelial permeability increase first occurred,"[6]; 14C-mannitol, 1-200 μM tested, plateau at 100 and 200 μM",25 µM
same,increase of serum levels of digoxin by omeprazole,[7],more than 350%
same,patients with diarrhea,patients,1-3%
same,patients with headache,patients,0.5-2.4%
same,patients with nausea,patients,0.9-2%
